Molecules are shown by their SMILES.

Drawing on patent US20130109721A1, “FAAH Inhibitors” (Ironwood Pharmaceuticals, Inc., priority 2009, published 2013), this text covers IC50 for ten molecules.

In the experiment the target is T1, FAAH (Mus musculus, UniProt O08914).
T1 construct: Whole brain tissue from these mice was collected; from tissue; host or cells: CD-1 mouse whole brain membrane homogenate
T1 sequence (O08914 1-579): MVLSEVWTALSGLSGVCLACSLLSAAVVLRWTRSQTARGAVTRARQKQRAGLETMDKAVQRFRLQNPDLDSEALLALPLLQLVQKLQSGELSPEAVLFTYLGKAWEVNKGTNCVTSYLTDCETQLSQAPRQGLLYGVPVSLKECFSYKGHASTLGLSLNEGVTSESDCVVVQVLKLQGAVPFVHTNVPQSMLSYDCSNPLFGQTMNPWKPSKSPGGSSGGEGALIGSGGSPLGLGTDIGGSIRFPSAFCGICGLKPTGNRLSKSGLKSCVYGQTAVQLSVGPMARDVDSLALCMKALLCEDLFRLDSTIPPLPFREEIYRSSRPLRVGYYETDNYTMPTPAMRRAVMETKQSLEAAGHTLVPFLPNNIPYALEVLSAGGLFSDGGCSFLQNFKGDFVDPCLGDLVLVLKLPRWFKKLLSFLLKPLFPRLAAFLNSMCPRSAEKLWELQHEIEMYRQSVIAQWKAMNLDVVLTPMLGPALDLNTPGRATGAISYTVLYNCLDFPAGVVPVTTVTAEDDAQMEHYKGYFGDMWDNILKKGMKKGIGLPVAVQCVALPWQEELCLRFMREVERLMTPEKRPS
As to the kind of experiment: FAAH inhibition, mouse brain membrane homogenate assay. The experiment is classed as biochemical. The conditions noted are these: average; FAAH extracted from mouse brain homogenate; read-out: Mouse Brain FAAH Extract IC50. How it is done: Adult rats (Charles River CD strain, female, 200 g) were anaesthetized with isofluorane and rapidly decapitated. Each brain was quickly removed and chilled in tubes (3 brains per tube) on ice. About 25 mL of “homogenization buffer” (20 mM HEPES buffer, pH 7.0, with 1 mM MgCl2) was added to 15 to 20 g of brain. The brains were homogenized on ice for 1 minute using an Omni GLH homogenizer (Omni International, Marietta, Ga.). The homogenates were then transferred to three centrifuge tubes and centrifuged at 36,500 g for 20 minutes at 4° C. The supernatant was discarded and each pellet was re-suspended in 25 mL homogenization buffer. The re-suspended material was again centrifuged (36,500 g, 20 minutes at 4° C.). Pellets were combined by resuspension in 10 mL of homogenization buffer and incubated in a 37° C. water bath for 15 minutes. The tubes were then placed on ice for 5 minutes followed by centrifugation at 36,500 g for 20 minutes at 4° C. The supernatant was discarded and the membrane pellets were then re-suspended in 40 mL of “resuspension buffer” (50 mM Tris-HCl buffer, pH 7.4, containing 1 mM EDTA and 3 mM MgCl2). A Bradford Protein assay was performed to determine protein concentration. The protein was aliquotted into screw cap Cryo tubes each containing ˜400 μL, flash frozen in liquid nitrogen and stored at −80° C. until used for the assay. A similar protocol was used to obtain brain membrane homogenates from mice.
Eighteen 10 to 12 week old female CD-1 mice housed at the animal care facility of Ironwood Pharmaceuticals were anesthetized by isoflurane anesthesia and rapidly decapitated using a small decapitator (Harvard Apparatus part #PY8 SS-0012, Holliston, Mass.). Whole brain tissue from these mice was collected (approximately 9.4 g total) and placed on aluminum foil sitting on dry ice to flash freeze the tissue. Tissue was thawed and used to prepare microsomes as described above for rat brain homogenates.
FAAH activity was assayed in the respective homogenates described herein (Rat brain, Mouse brain or Human brain) for certain exemplary substrate compounds using a modification of the method of Omeir et al. (1995 Life Sci 56:1999) and Fowler et al. (1997 J. Pharmacol Exp Ther 283:729). For assay of FAAH activity in rat brain membrane (RBM) homogenates, RBM homogenates (7 μg protein in 20 μL final volume of 10 mM Tris pH 6.5) were mixed with 180 μL of a mixture of the following: 2.0 μM unlabelled anandamide, 0.03 μCi radio labeled anandamide [ethanolamine 1-^3H] (40-60 Cis/mmol, product number ART-626, American Radiolabeled Chemicals, St. Louis, Mo.), 1 mg/mL Bovine Serum Albumin (fatty acid-free BSA, electrophoresis grade, Sigma, St. Louis, Mo.), 10 mM Tris-HCl (pH 6.5), and 1 mM EDTA in the presence and absence of test compounds (vehicle was DMSO at a final concentration of 1%) and incubated for 10 minutes at 37° C. Samples were placed on ice to terminate the reactions.
^3H-ethanolamine product and un-reacted ^3H-anandamide substrate were then separated either: (1) by using chloroform/methanol extraction or (2) by passing the reaction mixture through a glass fiber filter containing activated charcoal. Samples were extracted with chloroform/methanol by adding 0.4 mL of chloroform/methanol (1:1 v/v), vigorously mixing the samples, and separating the aqueous and organic phases by centrifugation. Radioactivity (corresponding to FAAH-catalyzed breakdown of ^3H-anandamide) found in aliquots (0.2 mL) of the aqueous phase was determined by liquid scintillation counting with quench correction. IC50 values were determined as described by Jonsson et al. (2001 Br. J. Pharmacol. 133:1263). Alternatively, reactions were purified using a modification of the solid-phase extraction method described by Wilson et al (2003 Anal. Biochem. 318:270). […]

A word on the IC50: it is the point on the concentration scale where inhibition reaches its midpoint. Consider `Cc1c(C(=O)C(=O)Nc2cccc(Cl)c2)c2ccsc2n1Cc1ccc(Cl)cc1` [Compound I-08, 2-(6-(4-chlorobenzyl)-5-methyl-6H-thieno[2,3-b]pyrrol-4-yl)-N-(3-chlorophenyl)-2-oxoacetamide], for which the IC50 was more than 5000 nM.
Under `COc1cc(NC(=O)C(=O)c2c(C)n(Cc3ccc(Cl)cc3)c3sccc23)ccn1` [Compound I-09, 2-(6-(4-chlorobenzyl)-5-methyl-6H-thieno[2,3-b]pyrrol-4-yl)-N-(2-methoxypyridin-4-yl)-2-oxoacetamide] stands 62 nM; under `Cc1c(C(=O)C(=O)Nc2cccc(Cl)c2)c2c(n1Cc1ccc(Cl)cc1)CCCCCC2` [Compound I-10, 2-(1-(4-chlorobenzyl)-2-methyl-4,5,6,7,8,9-hexahydro-1H-cycloocta[b]pyrrol-3-yl)-N-(3-chlorophenyl)-2-oxoacetamide], more than 5000 nM.
Turning to `COc1cc(NC(=O)C(=O)c2c3c(n(Cc4ccc(Cl)cc4)c2C)CCCCCC3)ccn1` [Compound I-11, 2-(1-(4-chlorobenzyl)-2-methyl-4,5,6,7,8,9-hexahydro-1H-cycloocta[b]pyrrol-3-yl)-N-(2-methoxypyridin-4-yl)-2-oxoacetamide], the IC50 is 192 nM.
For `Cc1c(C(=O)C(=O)Nc2cccc(Cl)c2)c2c(n1Cc1ccc(Cl)cc1)CCCCC2` [Compound I-12, 2-(1-(4-chlorobenzyl)-2-methyl-1,4,5,6,7,8-hexahydrocyclohepta[b]pyrrol-3-yl)-N-(3-chlorophenyl)-2-oxoacetamide], the IC50 came to 1090 nM.
Under `COc1cc(NC(=O)C(=O)c2c3c(n(Cc4ccc(Cl)cc4)c2C)CCCCC3)ccn1` [Compound I-13, 2-(1-(4-chlorobenzyl)-2-methyl-1,4,5,6,7,8-hexahydrocyclohepta[b]pyrrol-3-yl)-N-(2-methoxypyridin-4-yl)-2-oxoacetamide] stands 3 nM; under `Cc1c(C(=O)C(=O)Nc2cccc(Cl)c2)c2c(n1Cc1ccc(Cl)cc1)CCC(C)(C)C2` [Compound I-14, 2-(1-(4-chlorobenzyl)-2,5,5-trimethyl-4,5,6,7-tetrahydro-1H-indol-3-yl)-N-(3-chlorophenyl)-2-oxoacetamide], 516 nM.
Under `COc1cc(NC(=O)C(=O)c2c3c(n(Cc4ccc(Cl)cc4)c2C)CCC(C)(C)C3)ccn1` [Compound I-15, 2-(1-(4-chlorobenzyl)-2,5,5-trimethyl-4,5,6,7-tetrahydro-1H-indol-3-yl)-N-(2-methoxypyridin-4-yl)-2-oxoacetamide] stands 7 nM; under `Cc1c(C(=O)C(=O)Nc2cccc(Cl)c2)c2c(n1Cc1ccc(Cl)cc1)CCCC2` [Compound I-16, 2-(1-(4-chlorobenzyl)-2-methyl-4,5,6,7-tetrahydro-1H-indol-3-yl)-N-(3-chlorophenyl)-2-oxoacetamide], 2080 nM; under `COc1cc(NC(=O)C(=O)c2c3c(n(Cc4ccc(Cl)cc4)c2C)CCCC3)ccn1` [Compound I-18, 2-(1-(4-chlorobenzyl)-2-methyl-4,5,6,7-tetrahydro-1H-indol-3-yl)-N-(2-methoxypyridin-4-yl)-2-oxoacetamide], 9 nM.
